The subject of experiment [1] is Candida albicans.
For experiment [2], the target named is T1, Dihydrofolate reductase (Candida albicans, UniProt P22906).
T1 sequence (P22906 whole entry): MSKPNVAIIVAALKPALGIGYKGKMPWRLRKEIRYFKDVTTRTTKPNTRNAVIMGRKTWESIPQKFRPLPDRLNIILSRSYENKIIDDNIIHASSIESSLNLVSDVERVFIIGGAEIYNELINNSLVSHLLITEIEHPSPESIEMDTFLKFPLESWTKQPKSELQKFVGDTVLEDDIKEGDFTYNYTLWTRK
Description: Inhibition of Candida albicans DHFR expressed in Escherichia coli BL21 (DE3) assessed as rate of NADPH consumption using dihydrofolate as substrate

Experiment [3] can be described thus: Cytotoxicity against human MCF10A cells after 4 hrs by alamar blue assay. The following applies: MCF-10A. Background: The colour change of resazurin is a common sign of viable cells or microbes.
In experiment [4] the test system is Candida albicans. The experiment can be described thus: Antifungal activity against Candida albicans by alamar blue assay.
The target of experiment [5] is T2, Dihydrofolate reductase (Homo sapiens, UniProt P00374).
T2 sequence (P00374 whole entry): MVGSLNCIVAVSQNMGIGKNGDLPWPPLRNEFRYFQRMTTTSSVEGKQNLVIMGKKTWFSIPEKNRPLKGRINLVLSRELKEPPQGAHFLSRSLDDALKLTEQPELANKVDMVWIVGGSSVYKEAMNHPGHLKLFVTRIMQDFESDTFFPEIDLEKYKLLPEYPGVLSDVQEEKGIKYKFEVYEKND
Description: Inhibition of human DHFR assessed as rate of NADPH consumption using dihydrofolate as substrate

SMILES strings stand for the structures. ≈ marks a conversion by molar mass, not a printed value. Calls of active or inactive are those of the source. The calls are words filed in the database; no cut-off is given here.

One may read the MIC as the lowest concentration found to suppress growth. As usually defined, the IC50 is the concentration that gives 50% inhibition. Low values mean inhibition by little substance, high ones a need for much substance. In the case of `COc1cc(CC#Cc2cnc(N)nc2N)cc(OC)c1OC`, the MIC entry in the experiment on Candida albicans [1] was “inactive”. The IC50 at Dihydrofolate reductase [2] came out at 0.82 µM.

Turning to `COc1cc(CC#Cc2c(C)nc(N)nc2N)cc(OC)c1OC`, in the experiment on Candida albicans [1], the MIC result was “inactive”. Further, on Dihydrofolate reductase [2], the IC50 was found to be 0.18 µM.

`COc1cc(-c2ccccc2)cc([C@@H](C)C#Cc2c(C)nc(N)nc2N)c1` had an IC50 at Dihydrofolate reductase [2] of 0.033 µM.

`COc1cc(-c2ccccc2)cc([C@H](C)C#Cc2c(C)nc(N)nc2N)c1`: the IC50 against Dihydrofolate reductase [2] was determined as 0.037 µM.

On Dihydrofolate reductase [2], `CCc1nc(N)nc(N)c1C#CCc1cc(OC)c(OC)c(OC)c1` gave an IC50 of 0.018 µM.

For the compound `COc1ccc(OC)c(CC#Cc2c(C)nc(N)nc2N)c1`, half-maximal inhibition on Dihydrofolate reductase [2] (IC50) required 0.41 µM.

Turning to `CCc1nc(N)nc(N)c1C#CCc1cc(OC)ccc1OC`, the IC50 in experiment [3] was 63 µM; against Dihydrofolate reductase [2] it was 0.1 µM.

For `CCCc1nc(N)nc(N)c1C#CCc1cc(OC)ccc1OC`, the IC50 at Dihydrofolate reductase [2] turned out to be 0.045 µM.

The compound `COc1ccc(OC)c(CC#Cc2cnc(N)nc2N)c1` yielded an IC50 against Dihydrofolate reductase [2] of 1.4 µM.

Regarding `COc1cc(CC#Cc2c(C)nc(N)nc2N)cc(-c2c(C)cccc2C)c1`, the IC50 against Dihydrofolate reductase [2] came out at 0.055 µM.

Take `COc1cc(C(C)C#Cc2cnc(N)nc2N)cc(OC)c1OC` (racemic): the MIC entry in the experiment on Candida albicans [1] is “inactive”. Further, half-maximal inhibition at Dihydrofolate reductase [2] (IC50) was put at 0.18 µM.

In the case of `COc1cc(C(C#Cc2cnc(N)nc2N)OC)cc(OC)c1OC` (racemic), the MIC result in the experiment with Candida albicans [1] was “inactive”. On Dihydrofolate reductase [2], this compound returned an IC50 of 2.5 µM.

In the case of `COc1cc(C(C#Cc2c(C)nc(N)nc2N)OC)cc(OC)c1OC` (racemic), the MIC entry with Candida albicans [1] is “inactive”. The compound also returned an IC50 on Dihydrofolate reductase [2] of 0.32 µM.

With `COc1cc(C(O)C#Cc2c(C)nc(N)nc2N)cc(OC)c1OC` (racemic), in the experiment on Candida albicans [1], the MIC entry was “inactive”. The IC50 in experiment [3] worked out at 1000 µM; on Dihydrofolate reductase [2] it was 0.98 µM.

Consider `COc1cc(C(C)C#Cc2c(C)nc(N)nc2N)cc(OC)c1OC` (racemic), for which inhibition against Dihydrofolate reductase [2] was half-maximal at 0.11 µM (IC50).

For the compound `COc1cc(C(O)C#Cc2cnc(N)nc2N)cc(OC)c1OC` (racemic), the MIC result with Candida albicans [1] is “inactive”. For the same compound, the IC50 against Dihydrofolate reductase [2] is 11.9 µM.

Compound `COc1cc(-c2c(C)cccc2C)cc(C(C)C#Cc2c(C)nc(N)nc2N)c1` (racemic) registered an IC50 against Dihydrofolate reductase [2] of 0.045 µM.

As for `COc1cc(-c2c(C(C)C)cccc2C(C)C)cc(C(C)C#Cc2c(C)nc(N)nc2N)c1` (racemic), the MIC entry with Candida albicans [1] was “inactive”. In addition, the IC50 against Dihydrofolate reductase [2] amounted to 0.038 µM.

In the case of `COc1cc(C(C)C#Cc2c(C)nc(N)nc2N)ccc1-c1ccccc1` (racemic), the IC50 is 80 µM in experiment [3] and 0.055 µM at Dihydrofolate reductase [2].

`COc1cc(C(C)C#Cc2c(C)nc(N)nc2N)ccc1-c1c(C)cccc1C` (racemic): the MIC result in the experiment with Candida albicans [1] was “inactive”. On Dihydrofolate reductase [2], this compound showed an IC50 of 0.032 µM.

For the compound `COc1cc(C(C)C#Cc2c(C)nc(N)nc2N)ccc1-c1c(C(C)C)cccc1C(C)C` (racemic), the MIC entry with Candida albicans [1] is “inactive”. Besides, the IC50 against Dihydrofolate reductase [2] amounted to 0.041 µM.

`COc1cc(-c2ccccc2C)cc(C(C)C#Cc2c(C)nc(N)nc2N)c1` (racemic) had an IC50 against Dihydrofolate reductase [2] of 0.045 µM.

Compound `COc1cc(-c2ccccc2)cc(C(C)C#Cc2c(C)nc(N)nc2N)c1` (racemic) displayed an MIC in the experiment with Candida albicans [4] of 90 µg/mL (≈ 251 µM).

For `COc1ccc(-c2cc(OC)cc(C(C)C#Cc3c(C)nc(N)nc3N)c2)cc1` (racemic), half-maximal inhibition at Dihydrofolate reductase [2] (IC50) was put at 0.03 µM.

The compound `COc1ccc(OC)c(C(O)C#Cc2c(C)nc(N)nc2N)c1` (racemic) had an IC50 against Dihydrofolate reductase [2] of 0.73 µM. Against the preceding compound, the IC50 is about 24-fold higher.

For `COc1ccc(OC)c(C(C)C#Cc2c(C)nc(N)nc2N)c1` (racemic), the values for the IC50 against Dihydrofolate reductase [5] and at Dihydrofolate reductase [2] were 0.4 µM and 0.048 µM, respectively.

For `CCC(C#Cc1c(C)nc(N)nc1N)c1cc(OC)c(OC)c(OC)c1` (racemic), the IC50 at Dihydrofolate reductase [5] stood at 0.2 µM; against Dihydrofolate reductase [2], 0.045 µM.

As to `COc1cc(-c2ccccc2)cc(C(O)C#Cc2c(C)nc(N)nc2N)c1` (racemic), the MIC result in the experiment with Candida albicans [1] was “inactive”. Further, the half-inhibitory concentration (IC50) against Dihydrofolate reductase [2] is 0.091 µM.

As to `COc1cc(-c2cc(C)cc(C)c2)cc(C(C)C#Cc2c(C)nc(N)nc2N)c1` (racemic), at Dihydrofolate reductase [2], half-maximal inhibition (IC50) required 0.017 µM.

Regarding `CCc1nc(N)nc(N)c1C#CC(C)c1cc(OC)c(OC)c(OC)c1` (racemic), the IC50 against Dihydrofolate reductase [2] worked out at 0.02 µM.

With `COc1cc(-c2ccc(C(C)(C)C)cc2)cc(C(C)C#Cc2c(C)nc(N)nc2N)c1` (racemic), the results for the IC50 (in experiment [3]; on Dihydrofolate reductase [2]) were 50 µM and 0.034 µM, respectively.

As for `COc1cc(C(C#Cc2c(C)nc(N)nc2N)C(C)C)cc(OC)c1OC` (racemic), the IC50 against Dihydrofolate reductase [2] turned out to be 0.033 µM.

As for `COc1ccc(OC)c(C(C#Cc2c(C)nc(N)nc2N)OC)c1` (racemic), the MIC result with Candida albicans [1] is “inactive”. Moreover, the IC50 came to 0.06 µM against Dihydrofolate reductase [5] and 0.55 µM at Dihydrofolate reductase [2].

For `COc1cc(-c2ccc(C)cc2)cc(C(C)C#Cc2c(C)nc(N)nc2N)c1` (racemic), 0.022 µM corresponded to half-maximal inhibition against Dihydrofolate reductase [2] (IC50). This counts as double-digit nanomolar.

The values are drawn from ChEMBL document CHEMBL1154109, “In vitro biological activity and structural analysis of 2,4-diamino-5-(2'-arylpropargyl)pyrimidine inhibitors of Candida albicans” (Bioorg Med Chem, 2009).
